These are literature values, as cited in US8232273B2, “Heterocyclic compounds and methods of use” (Genentech, Inc., priority 2008, dated 2012).

One data set deals with Mcl-1 and A1. Particulars: cited from earlier work.
A further data set concerns xenograft models. Particulars: animal studies, single agent; cited from earlier work.
Another data set concerns Bcl-2, Bcl-w and Bcl-xL. Particulars: cited from earlier work.

On to `CC1(C)CCC(c2ccc(Cl)cc2)=C(CN2CCN(c3ccc(C(=O)NS(=O)(=O)c4ccc(N[C@H](CCN5CCOCC5)CSc5ccccc5)c(S(=O)(=O)C(F)(F)F)c4)cc3)CC2)C1` [ABT-263, N-(4-(4-((2-(4-chlorophenyl)-5,5-dimethyl-1-cyclohex-1-en-1-yl)methyl)piperazin-1-yl)benzoyl)-4-(((1R)-3-(morpholin-4-yl)-1-((phenylsulfanyl)methyl)propyl)amino)-3-((trifluoromethyl)sulfonyl)benzenesulfonamide], for which the “binding to Mcl-1 and A1” value in the data set on Mcl-1 and A1 was “only weakly”. Moreover, in the data set with xenograft models, the “cytotoxic activity in certain xenograft models as single agents” value is listed as “demonstrated cytotoxic activity”. The “binding to Bcl-2, Bcl-w and Bcl-xL” value with Bcl-2, Bcl-w and Bcl-xL is “bind strongly”.
In the case of `CN(C)CC[C@H](CSc1ccccc1)Nc1ccc(S(=O)(=O)NC(=O)c2ccc(N3CCN(Cc4ccccc4-c4ccc(Cl)cc4)CC3)cc2)cc1[N+](=O)[O-]` [ABT-737, N-(4-(4-((4′-chloro(1,1′-biphenyl)-2-yl)methyl)piperazin-1-yl)benzoyl)-4-(((1R)-3-(dimethylamino)-1-((phenylsulfanyl)methyl)propyl)amino)-3-nitrobenzenesulfonamide], the “binding to Mcl-1 and A1” value with Mcl-1 and A1 was “only weakly”. In the data set on xenograft models, the “cytotoxic activity in certain xenograft models as single agents” value is recorded as “demonstrated cytotoxic activity”. The “binding to Bcl-2, Bcl-w and Bcl-xL” value in the data set on Bcl-2, Bcl-w and Bcl-xL is given as “bind strongly”.
